Results: patent US20030170740A1, “Characterized E2IG3 protein for diagnosis and treatment of proliferative diseases” (priority 2001, published 2003)

Tested on: MCF-7 cells
Assay: High dose E2 treatment of MCF-7 cells (apoptosis)
Type: cell-based, human
Conditions: high dose E2 treatment of MCF-7 cells

With `C[C@]12CC[C@@H]3c4ccc(O)cc4CC[C@H]3[C@@H]1CC[C@@H]2O` [E2, 17B-estridiol] the “Effect of high dose E2 on cell fate (apoptosis)” value was “committed to apoptotic pathways”.
